Assay results taken from patent US4594342A, “1,5-benzothiazepine derivative” (priority 1984, dated 1986).
Counter-ions that a name gives are not always drawn.

Experiments:
rat platelets [1] = assay: Inhibitory effect ex vivo on collagen-induced platelet aggregation of rat platelets after oral administration (Experiment 2); format: in vivo; settings: 10 mg/kg orally, Sprague-Dawley rats fasted about 20 hours, blood 3 hours after administration
Experimental: A test compound solution (Dose: 10 mg/kg) was orally administered to Sprague-Dawley rats fasted for about 20 hours. Three hours after administration, blood was collected from the abdominal aorta of the rats. […] The bottom layer was further centrifuged to give platelet-poor plasma ("PPP") as the supernatant solution. PRP was diluted with PPP so that the blood platelet counts were 0.8-1×10^6 /mm^3.

Rat platelets [2] = assay: Inhibitory effects in vitro on collagen-induced platelet aggregation of rat platelets (Experiment 1); format: cell-based; settings: rat PRP, 37° C., read-out: IC50 (concentration of test compound required to induce 50% inhibition of collagen-induced platelet aggregation)
Source text: (§1) (Inhibitory effects in vitro on collagen-induced platelet aggregation of rat or human platelets)
(§2) The bottom layer was further centrifuged to give platelet-poor plasma ("PPP") as the supernatant solution. Platelet counts were adjusted to about 0.8-1×10^6 /mm^3 for rat PRP and about 4×10^5 /mm^3 for human PRP by dilution with PPP.

Human platelets = assay: Inhibitory effects in vitro on collagen-induced platelet aggregation of human platelets (Experiment 1); format: cell-based; settings: human PRP, 37° C., read-out: IC50 (concentration of test compound required to induce 50% inhibition of collagen-induced platelet aggregation)
Source text: as §1, §2

Row | Compound | Platelet aggregation-inhibiting activity (rat platelets [1]) | IC50 (Rat platelets [2]) | IC50 (Human platelets)
1 | CNCCN1C(=O)[C@H](OC(C)=O)[C@H](c2ccc(OC)cc2)Sc2cc(C)ccc21 (relative stereo) [(±)-cis-2-(4-methoxyphenyl)-3-acetoxy-5-[2-(N-methylamino)ethyl]-8-methyl-2,3-dihydro-1,5-benzothiazepin-4(5H)-one hydrochloride. 1/2H2 O.1/2C2 H5 OH] | ++ ((++) if the percentage inhibition is not less than 50%) |  | 
2 | CNCCN1C(=O)[C@H](OC(C)=O)[C@H](c2ccc(C)cc2)Sc2cc(C)ccc21 (relative stereo) [(±)-cis-2-(4-methylphenyl)-3-acetoxy-5-[2-(N--methylamino)ethyl]-8-methyl-2,3-dihydro-1,5-benzothiazepin-4(5H)--one hydrochloride] | ++ ((++) if the percentage inhibition is not less than 50%) | 0.5 µg/mL | 
3 | CNCCN1C(=O)[C@H](O)[C@H](c2ccc(C)cc2)Sc2cc(C)ccc21 (relative stereo) [(±)-cis-2-(4-methylphenyl)-3-hydroxy-5-[2-(N--methylamino)ethyl]-8-methyl-2,3-dihydro-1,5-benzothiazepin-4(5H)--one sulfate] |  | 0.1 to 0.3 µg/mL | 
4 | CNCCN1C(=O)[C@H](O)[C@H](c2ccc(C)cc2)Sc2cc(C)ccc21 (relative stereo) [(±)-cis-2-(4-methylphenyl)-3-hydroxy-5-[2-(N--methylamino)ethyl]-8-methyl-2,3-dihydro-1,5-benzothiazepin-4(5H)--one hydrochloride] | ++ ((++) if the percentage inhibition is not less than 50%) |  | 0.3 µg/mL
5 | CNCCN1C(=O)[C@H](O)[C@H](c2ccc(OC)cc2)Sc2cc(C)ccc21.Cl (racemic) [(±)-cis-2-(4-methoxyphenyl)-3-hydroxy-5-[2-(N-methylamino)ethyl]-8-methyl-2,3-dihydro-1,5-benzothiazepin-4(5H)-one hydrochloride] | ++ ((++) if the percentage inhibition is not less than 50%) |  | 
6 | CNCCN1C(=O)[C@H](O)[C@H](c2ccc(C)cc2)Sc2cc(C)ccc21 (single isomer, unassigned) [(-)-cis-2-(4-methylphenyl)-3-hydroxy-5-[2-(N-methylamino)ethyl]-8-methyl-2,3-dihydro-1,5-benzothiazepin-4(5H)-one hydrochloride hemihydrate] |  | 0.1 µg/mL | 0.003 to 0.03 µg/mL
7 | CNCCN1C(=O)[C@H](O)[C@H](c2ccc(C)cc2)Sc2cc(OC)ccc21 (relative stereo) [(±)-cis-2-(4-methylphenyl)-3-hydroxy-5-[2-(N--methylamino)ethyl]-8-methoxy-2,3-dihydro-1,5-benzothiazepin-4(5H)--one hydrochloride] |  | 0.3 to 1 µg/mL | 0.5 µg/mL
8 | CNCCN1C(=O)[C@H](OC(C)=O)[C@H](c2ccc(OC)cc2)Sc2cc(C)ccc21.O=C(O)C(=O)O (single isomer, unassigned) [(-)-cis-2-(4-methoxyphenyl)-3-acetoxy-5-[2-(N-methylamino)ethyl]-8-methyl-2,3-dihydro-1,5-benzothiazepin-4(5H)-one oxalate] | ++ ((++) if the percentage inhibition is not less than 50%) |  | 
9 | CNCCN1C(=O)[C@H](O)[C@H](c2ccc(OC)cc2)Sc2cc(C)ccc21 (single isomer, unassigned) [(-)-cis-2-(4-methoxyphenyl)-3-hydroxy-5-[2-(N--methylamino)ethyl]-8-methyl-2,3-dihydro-1,5-benzothiazepin-4(5H)--one hydrobromide] | ++ ((++) if the percentage inhibition is not less than 50%) |  | 
10 | CNCCN1C(=O)[C@H](O)[C@H](c2ccc(OC)cc2)Sc2cc(O)ccc21 (relative stereo) [(±)-cis-2-(4-methoxyphenyl)-3,8-dihydroxy-5-[2-(N--methylamino)ethyl]-2,3-dihydro-1,5-benzothiazepin-4(5H)--one hydrochloride] | ++ ((++) if the percentage inhibition is not less than 50%) |  | 
11 | CNCCN1C(=O)[C@H](OC(C)=O)[C@H](c2ccc(C)cc2)Sc2cc(OC)ccc21 (relative stereo) [(±)-cis-2-(4-methylphenyl)-3-acetoxy-5-[2-(N--methylamino)ethyl]-8-methoxy-2,3-dihydro-1,5-benzothiazepin-4(5H)--one oxalate] |  |  | 0.5 µg/mL
12 | Br.CNCCN1C(=O)[C@H](O)[C@H](c2ccc(C)cc2)Sc2ccccc21 (racemic) [(±)-cis-2-(4-methylphenyl)-3-hydroxy-5-[2-(N-methylamino)ethyl]-2,3-dihydro-1,5-benzothiazepin-4(5H)-one hydrobromide] |  |  | 0.3 µg/mL
